Measurements from article PMC9280334 (Frontiers in Chemistry, 2022).
“And” between values parts separate entries of the source, which are not always exact repeats. Equal entries are not always repeated.

Legend:
SH-SY5Y cells [1] = experiment: Neuroprotection against Aβ1-42-induced cytotoxicity in SH-SY5Y cells (MTT); format: cell-based, human; settings: for SH-SY5Y cell viability (% of control): 1 µM compound before 5 μM Aβ1-42, MTT, mean ± SEM
Description: Cell culture chemicals were purchased from Lonza, HyClone, or Thermo Scientific. Human neuroblastoma SH-SY5Y cells were maintained in Dulbecco’s modified Eagle’s medium (DMEM) supplemented with 10% FBS, 1% L-glutamine, and 1% antibiotic mix at 37°C in a humidified atmosphere containing 5% CO2. Cell viability was determined using a thiazolyl blue tetrazolium bromide [3-(4,5-dimethyl-2-thiazolyl)-2,5-diphenyl-2H-tetrazolium bromide] […] SH-SY5Y cells were seeded into 384-well plates at 3,000 cells per well and treated with novel compounds at a concentration of 1 μM, 3 h prior to the addition of Aβ1–42 (5 μM). After 24 h of incubation, 5 μl of the MTT reagent (5 mg/ml) was added to each well. 40 μl of DMSO was used to dissolve formazan crystals. Absorbance values were measured at 690 and 570 nm using a BMG Omega Fluorostar microplate reader.

BuChE (equine serum) = biological target: T1, BuChE (equine serum) (Equus caballus, UniProt P81908); experiment: biochemical; format: biochemical; settings: for IC50: equine serum BuChE, mean ± SEM of three experiments
T1 construct: purchased Sigma-Aldrich
Description: (§1) AChE, BuChE, 5,5'-dithiobis (2-nitrobenzoic acid) (DTNB), acetyl- and butyrylthiocholine iodides were purchased from Sigma-Aldrich. Five different concentrations of the corresponding compounds in ethanol-DMSO (9:1) were prepared. […] After 3 min of incubation, the substrate solution (acetylthiocholine iodide or butyrylthiocholine iodide, 0.05 M) was added and then incubated for at least 1 min at 25°C. […] The inhibition curve was obtained by plotting the percentage of enzyme activity (100% for the reference) versus the logarithm of the tested compound concentration. […]

AChE (electric eel) = biological target: T2, AChE (electric eel) (Electrophorus electricus, UniProt O42275); experiment: biochemical; format: biochemical; settings: for IC50: electric eel AChE, mean ± SEM of three experiments
T2 construct: purchased Sigma-Aldrich
Description: as §1

PC12 cells = experiment: Neuroprotection against H2O2-induced cell death in PC12 cells (MTT); format: cell-based; settings: H2O2 (150 μM)-induced injury, mean ± SEM
Description: The cell viability was measured using MTT [3-(4,5-dimethylthiazol-2-yl)-2,5-diphenyl tetrazolium bromide] assay ([Datki et al., 2003]). PC12 cells (from the Iranian Biological Resource Center, IBRC) received different treatments, including no treatment (control), 150 μM H2O2 alone, or 150 μM H2O2 in combination with 0.1–50 μM of the tested compound. The cells were seeded at 1 × 10^4 cells/well and incubated at 37 °C under a 5% CO2 atmosphere for 24 h, then treated with the tested compound and incubated for 3 h. Next, the cells were exposed to H2O2 for 2 h again. The MTT solution (20 μl, 5 mg/ml) was next replaced with the medium and incubated for 4 h. 100 μl of DMSO was added to dissolve the formazan precipitate. Absorbance was then measured at 570 nm using a multi-mode plate reader (Biotek, Winooski, VT). Cell viability is expressed as a percentage relative to the untreated control.

[2] = biological target: T3, Aβ1-42 and AChE (human recombinant AChE) (Homo sapiens, UniProt P22303); experiment: Inhibition of AChE-induced Aβ1-42 aggregation (ThT assay); format: biochemical; settings: Aβ1-42 and AChE (0.01 u/ml), compound 100 μM, mean ± SEM of three experiments, read-out: Inhibition of AChE-induced Aβ aggregation
T3 construct: Amyloid-β protein 1–42 (Sigma A9810) was dissolved; purchased Sigma C1682 (AChE); A9810 (Aβ1-42)
Description: Amyloid-β protein 1–42 (Sigma A9810) was dissolved in Phosphate Buffer Saline pH 7.4 (PBS, HyClone Thermo Scientific) containing ammonium hydroxide (1%). Aβ1-42 (50 μM) was incubated for 24 h at 37°C for prefibrillation.
(§2) To determine AChE-induced Aβ1-42 aggregation, Aβ1-42 (20 μl) ± human recombinant AChE (0.01 u/ml, Sigma C1682) were added to […] of PBS buffer pH 7.4 including 0.15 M NaCl and 20 μM thioflavin T (ThT). The mixture was incubated at 37°C in the absence and presence of the compounds (100 μM) and the fluorescence intensities were determined. Due to the presence of the tested compounds, inhibition of self- or AChE-induced aggregation percent was determined by the following calculation: [100-((IFi/IFo) × 100)] where IFi and IFo are the fluorescence intensities obtained for Aβ ± AChE in the presence and in the absence of inhibitors.

SH-SY5Y cells [3] = experiment: Cytotoxicity on SH-SY5Y cells (MTT); format: cell-based, human; settings: for Cytotoxic effect on SH-SY5Y cells: 1 μM; for SH-SY5Y cell viability (% of control): cytotoxic effect, 1 µM compound alone, MTT, mean ± SEM
Description: Cell culture chemicals were purchased from Lonza, HyClone, or Thermo Scientific. Human neuroblastoma SH-SY5Y cells were maintained in Dulbecco’s modified Eagle’s medium (DMEM) supplemented with 10% FBS, 1% L-glutamine, and 1% antibiotic mix at 37°C in a humidified atmosphere containing 5% CO2. Cell viability was determined using a thiazolyl blue tetrazolium bromide [3-(4,5-dimethyl-2-thiazolyl)-2,5-diphenyl-2H-tetrazolium bromide] (MTT) assay ([Datki et al., 2003]). SH-SY5Y cells were seeded into 384-well plates at 3,000 cells per well and treated with novel compounds at a concentration of 1 μM, 3 h prior to the addition of Aβ1–42 (5 μM). After 24 h of incubation, 5 μl of the MTT reagent (5 mg/ml) was added to each well. 40 μl of DMSO was used to dissolve formazan crystals. Absorbance values were measured at 690 and 570 nm using a BMG Omega Fluorostar microplate reader.

Aβ1-42 = biological target: T4, Aβ1-42 (Homo sapiens, UniProt P05067); experiment: Inhibition of self-induced Aβ1-42 aggregation (ThT assay); format: biochemical; settings: for Inhibition of self-induced Aβ aggregation: Aβ1-42 20 μM, compound 100 μM, after 48 h, ThT, mean ± SEM of three experiments; for Inhibition of Aβ aggregation, fold more effective than the reference drug donepezil: self-induced Aβ aggregation, ThT assay
T4 construct: Amyloid-β protein 1–42 (Sigma A9810) was dissolved; purchased Sigma A9810
Description: Inhibitory properties of the compounds on self-induced and AChE-induced aggregation of amyloid-β protein 1–42 was determined using a thioflavin T (ThT)-based fluorescence assay with slight modifications ([Levine, 1993]). The ThT excitation/emission was measured at 448 nm/490 nm at 48 h using a SpectraMax® Microplate Reader. Amyloid-β protein 1–42 (Sigma A9810) was dissolved in Phosphate Buffer Saline pH 7.4 (PBS, HyClone Thermo Scientific) containing ammonium hydroxide (1%). Aβ1-42 (50 μM) was incubated for 24 h at 37°C for prefibrillation.
as §2

[4] = ratio of IC50 values vs Donepezil

T4 sequence (P05067 672-713 limits assumed): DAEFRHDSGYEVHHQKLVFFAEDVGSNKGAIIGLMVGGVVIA
T3 sequence (P22303 32-614): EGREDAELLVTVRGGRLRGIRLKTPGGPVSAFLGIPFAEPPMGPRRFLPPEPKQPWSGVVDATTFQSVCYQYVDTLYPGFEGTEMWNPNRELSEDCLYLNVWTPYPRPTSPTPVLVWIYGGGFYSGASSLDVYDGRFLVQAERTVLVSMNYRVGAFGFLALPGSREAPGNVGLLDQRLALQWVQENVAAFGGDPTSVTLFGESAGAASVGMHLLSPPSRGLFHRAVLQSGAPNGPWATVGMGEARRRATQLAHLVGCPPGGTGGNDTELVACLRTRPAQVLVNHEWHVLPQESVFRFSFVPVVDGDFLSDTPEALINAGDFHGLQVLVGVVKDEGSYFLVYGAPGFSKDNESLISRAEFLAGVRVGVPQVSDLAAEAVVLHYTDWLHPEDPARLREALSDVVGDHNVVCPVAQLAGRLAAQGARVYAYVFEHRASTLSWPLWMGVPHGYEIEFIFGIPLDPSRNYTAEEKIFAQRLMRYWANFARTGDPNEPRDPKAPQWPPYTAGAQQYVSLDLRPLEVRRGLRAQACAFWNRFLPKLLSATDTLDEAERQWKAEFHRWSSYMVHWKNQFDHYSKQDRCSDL
T2 sequence (O42275 24-633): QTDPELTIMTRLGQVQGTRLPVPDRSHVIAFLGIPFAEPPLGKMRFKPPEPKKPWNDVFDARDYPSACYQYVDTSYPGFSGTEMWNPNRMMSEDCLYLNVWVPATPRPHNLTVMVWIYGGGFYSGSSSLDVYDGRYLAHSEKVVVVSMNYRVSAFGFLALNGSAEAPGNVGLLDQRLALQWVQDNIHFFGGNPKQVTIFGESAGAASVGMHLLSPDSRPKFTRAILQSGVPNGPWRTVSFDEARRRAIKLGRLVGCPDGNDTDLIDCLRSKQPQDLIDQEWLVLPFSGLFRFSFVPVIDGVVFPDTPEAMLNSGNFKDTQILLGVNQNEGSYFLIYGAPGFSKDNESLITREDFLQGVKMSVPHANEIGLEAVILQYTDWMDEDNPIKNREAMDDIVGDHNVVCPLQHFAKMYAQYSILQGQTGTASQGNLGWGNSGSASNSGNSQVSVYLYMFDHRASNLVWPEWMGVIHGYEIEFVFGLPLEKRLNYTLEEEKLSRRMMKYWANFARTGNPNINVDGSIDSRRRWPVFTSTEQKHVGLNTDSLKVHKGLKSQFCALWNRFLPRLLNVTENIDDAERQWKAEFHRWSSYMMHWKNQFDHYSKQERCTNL
T1 sequence (P81908 whole entry): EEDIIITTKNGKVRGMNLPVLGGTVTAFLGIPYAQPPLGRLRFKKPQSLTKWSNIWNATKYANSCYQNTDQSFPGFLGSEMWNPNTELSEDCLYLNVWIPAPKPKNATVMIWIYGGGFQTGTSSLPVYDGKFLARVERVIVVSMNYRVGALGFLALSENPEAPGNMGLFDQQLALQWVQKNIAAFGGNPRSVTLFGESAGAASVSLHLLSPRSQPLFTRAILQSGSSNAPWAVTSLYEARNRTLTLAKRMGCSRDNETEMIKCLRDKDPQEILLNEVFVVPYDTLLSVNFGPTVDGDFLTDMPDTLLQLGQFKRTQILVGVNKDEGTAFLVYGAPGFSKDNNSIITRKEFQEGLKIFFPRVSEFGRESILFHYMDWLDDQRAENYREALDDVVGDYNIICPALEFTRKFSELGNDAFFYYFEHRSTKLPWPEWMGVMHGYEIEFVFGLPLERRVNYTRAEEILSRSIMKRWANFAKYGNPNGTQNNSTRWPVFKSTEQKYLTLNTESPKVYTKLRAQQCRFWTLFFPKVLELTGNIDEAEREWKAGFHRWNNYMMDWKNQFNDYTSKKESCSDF

What does the source list for CN(C)c1cc[n+](CCCOc2ccc(-c3cc4cc([N+](=O)[O-])ccc4oc3=O)cc2)cc1.[Br-] [Compound 3t, 4-(Dimethylamino)-1-(3-(4-(6-nitro-2-oxo-2H-chromen-3-yl)phenoxy)propyl)pyridin-1-ium Bromide]?
Neuroprotective effect against Aβ1-42-induced cytotoxicity in SH-SY5Y cells (SH-SY5Y cells [1]; 1 μM): could not protect neuronal cells; SH-SY5Y cell viability (% of control) (SH-SY5Y cells [1]): 59.7 ± 2.8 % of control; IC50 (BuChE (equine serum)): 9 ± 0.4 nM; BuChE inhibition, times more active than the standard drug Donepezil (BuChE (equine serum); [4]): 305 times; IC50 (AChE (electric eel)): 14 ± 0.9 nM; PC12 cell viability (% of control) (PC12 cells; 0.1 μM compound): 38.3 ± 0.9 % of control; PC12 cell viability (% of control) (PC12 cells; 1 μM compound): 45.3 ± 0.7 % of control; PC12 cell viability (% of control) (PC12 cells; 5 μM compound): 53.6 ± 0.7 % of control; PC12 cell viability (% of control) (PC12 cells; 10 μM compound): 56.3 ± 1.6 % of control; PC12 cell viability (% of control) (PC12 cells; 20 μM compound): 68.2 ± 0.1 % of control; PC12 cell viability (% of control) (PC12 cells; 50 μM compound): 71.8 ± 1.1 % of control; inhibition at 100 µM [2]: 52.5 ± 4.9%; Cytotoxic effect on SH-SY5Y cells (SH-SY5Y cells [3]): no cytotoxic effect; SH-SY5Y cell viability (% of control) (SH-SY5Y cells [3]): 84.8 ± 6.8 % of control; Inhibition of self-induced Aβ aggregation (Aβ1-42): 66.4 ± 4.7%; Inhibition of Aβ aggregation, fold more effective than the reference drug donepezil (Aβ1-42): about 2 fold

Which “SH-SY5Y cell viability (% of control)” value (SH-SY5Y cells [1]) does the source give for O=c1oc2ccc([N+](=O)[O-])cc2cc1-c1ccc(OCCC[n+]2ccccc2)cc1.[Br-] [Compound 3f, 1-(3-(4-(6-Nitro-2-oxo-2H-chromen-3-yl)phenoxy)propyl)pyridinium Bromide] here?
Its value is 89 % of control and 89.0 ± 9.8 % of control.

What about the IC50 (BuChE (equine serum)) of the same compound?
The IC50 was 24 ± 5 nM.

And the IC50 (AChE (electric eel))?
The IC50 was 2 nM.

And the “AChE inhibition, times more active than the standard drug Donepezil” value (AChE (electric eel); [4])?
The value was 7 times.

And the “PC12 cell viability (% of control)” value (PC12 cells; 0.1 μM compound)?
Its value is 34.1 ± 1.0 % of control.

What about the “PC12 cell viability (% of control)” value (PC12 cells; 1 μM compound) of the same compound?
The value was 42.8 ± 1.4 % of control.

What about the “PC12 cell viability (% of control)” value (PC12 cells; 5 μM compound) of the same compound?
The value was 43.1 ± 1.5 % of control.

And the “PC12 cell viability (% of control)” value (PC12 cells; 10 μM compound)?
The value was 45.0 ± 0.8 % of control.

And the “PC12 cell viability (% of control)” value (PC12 cells; 20 μM compound)?
Its value is 48.3 ± 0.4 % of control.

And the “PC12 cell viability (% of control)” value (PC12 cells; 50 μM compound)?
Its value is 50.8 ± 0.6 % of control.

What about the inhibition at 100 µM [2] of the same compound?
Its inhibition at 100 µM is 87.2 ± 5.7%.

And the “Cytotoxic effect on SH-SY5Y cells” value (SH-SY5Y cells [3])?
Its value is “no cytotoxic effect”.

And the “SH-SY5Y cell viability (% of control)” value (SH-SY5Y cells [3])?
The value was 83.6 ± 3.4 % of control.

And the “Inhibition of self-induced Aβ aggregation” value (Aβ1-42)?
The value was 84.7 ± 1.6%.

And the “Inhibition of Aβ aggregation, fold more effective than the reference drug donepezil” value (Aβ1-42)?
The value was “about 2 fold”.

With O=c1oc2ccccc2cc1-c1ccc(OCCC[n+]2ccccc2)cc1.[Br-] [Compound 3a, 1-(3-(4-(2-Oxo-2H-chromen-3-yl)phenoxy)propyl)pyridinium Bromide] as the compound, how does the “SH-SY5Y cell viability (% of control)” value (SH-SY5Y cells [1]) read?
Its value is 79 % of control and 79.1 ± 4.0 % of control.

And the IC50 (BuChE (equine serum))?
Its IC50 is 84 ± 4 nM.

And the IC50 (AChE (electric eel))?
The IC50 was 4 nM.

And the “PC12 cell viability (% of control)” value (PC12 cells; 0.1 μM compound)?
Its value is 39.4 ± 1.7 % of control.

What about the “PC12 cell viability (% of control)” value (PC12 cells; 1 μM compound) of the same compound?
The value was 42.2 ± 1.3 % of control.

What about the “PC12 cell viability (% of control)” value (PC12 cells; 5 μM compound) of the same compound?
Its value is 53.6 ± 1.4 % of control.

And the “PC12 cell viability (% of control)” value (PC12 cells; 10 μM compound)?
The value was 55.6 ± 0.1 % of control.

What about the “PC12 cell viability (% of control)” value (PC12 cells; 20 μM compound) of the same compound?
Its value is 57.4 ± 0.4 % of control.

And the “PC12 cell viability (% of control)” value (PC12 cells; 50 μM compound)?
The value was 58.3 ± 1.4 % of control.

What about the inhibition at 100 µM [2] of the same compound?
Its inhibition at 100 µM is 76 ± 1.6%.

What about the “Cytotoxic effect on SH-SY5Y cells” value (SH-SY5Y cells [3]) of the same compound?
The value was “no cytotoxic effect”.

What about the “SH-SY5Y cell viability (% of control)” value (SH-SY5Y cells [3]) of the same compound?
Its value is 81.2 ± 10.0 % of control.

And the “Inhibition of self-induced Aβ aggregation” value (Aβ1-42)?
Its value is 73.3 ± 15.4%.

And the “Inhibition of Aβ aggregation, fold more effective than the reference drug donepezil” value (Aβ1-42)?
Its value is “about 2 fold”.
